Reference: patent publication US6767902B2, “Androgen as a male contraceptive and non-contraceptive androgen replacement” (The Population Council, Inc., priority 1997, dated 2004)

What was measured:
[1] = MENT Ac subcutaneous implants in healthy men: serum MENT levels and in vivo release; parameters: species or system human
Protocol: (§1) Forty-five healthy, normal male subjects were selected for a study of the contraceptive effect of androgens alone. Subjects were treated over the course of four weeks, during which extensive blood work-ups were undertaken. The subjects were divided into three groups of 15 each. Group A received one subcutaneous implant, Group B received two subcutaneous implants and Group C received four subcutaneous implants. Implants remained in place for 28 consecutive days.
(§2) The total duration of the study was 42 days. Each man included in the study was assessed through a medical history and a complete general physical examination and a determination of general eligibility. Subjects were tested on a weekly basis for six consecutive weeks at approximately the same time each day. Day 1 was the date of the subdermal implant's insertion and Day 29 was removal. On the last day of the study, Day 43, subjects received a general physical examination, as well as an additional battery of blood tests. Blood samples for hormone immuno assays MENT (7 mL), FSH, LH and testosterone (5 mL for the last 3 hormones together) were obtained during pre-admission and each subsequent visit.

[2] = tested on: serum levels of LH, FSH, T and DHT; experiment: MENT Ac subcutaneous implants in healthy men for 28 days: serum hormone levels; assay type: in vivo, human
Protocol: as §1, §2
FIG. 2 illustrates the effect of MENT Ac implants on mean serum LH concentration. […] By suppressing LH, testosterone production is suppressed. […] A reduction in testosterone reduces or eliminates spermatogenesis. However, because androgen is being supplied, sexual function is generally maintained.
Finally, FIG. 3 illustrates the effect of MENT Ac implants on the mean serum FSH concentration. […] FSH stimulates germ cell production. If germ cells are present, but testosterone is insufficient, then spermatogenesis cannot take place and sperm cells will not be produced. Similarly, if FSH concentrations are low enough, germ cells will not be produced and spermatogenesis cannot take place irrespective of testosterone levels.

prostate = details: in the potency ranges contemplated; cited from earlier work
[3] = tested on: serum levels of LH, FSH and T; experiment: Multiple-dose daily i.m. injection of MENT in normal men for six days: serum hormone levels; assay type: in vivo, human
Protocol: Two multiple injection studies were undertaken in which groups of four normal, non-sterile men each received 1, 2 or 4 mg of MENT daily by intramuscular (i.m.) injection for six consecutive days (24 men, 12 in each study). The formulation in each injection included the appropriate amount of MENT suspended in 27.6 mg/mL of polyethylene glycol, 1.8 mg/mL of Tween 80 and 8.3 mg/mL of sodium chloride. Serum FSH, LH and testosterone levels were measured daily. The results are illustrated in FIGS. 7-12.
The values returned to the normal range by day 15-30 of the study period. With reference to FIG. 8 (open boxes connected by a line=1 mg, closed boxes connected by a line=2 mg, open circles connected by a line=4 mg) a dose of at least 4 mg was required to obtain serum levels of FSH below two international units (“IU”) per liter by day 6. This must be compared with the results obtained by the use of 1000 μg (1 mg) of the same androgen delivered by a subcutaneous implant as illustrated in FIGS. 2-4 and Example 1. Therefore, considerably more of this same androgen was required to obtain certain depressed serum levels of LH, FSH and testosterone in males when the androgen was administered through a once-a-day intramuscular injection when compared to continuous release implants. […] FIG. 7 illustrates the level of serum LH achieved in the first study and FIG. 9 illustrates the level of serum testosterone achieved. FIGS. 10-12 illustrate the levels of LH, FSH and testosterone realized by the same protocol at the second testing site. Both the data and the overall trends of both studies are largely the same.

[4] = single implant, about 500 micrograms MENT Ac per day, about 28 days
[5] = two implants simultaneously, about 1,000 micrograms MENT Ac per day

Compound: CC(=O)O[C@H]1CC[C@H]2[C@H]3[C@H](CC[C@]12C)[C@H]1CCC(=O)C=C1C[C@H]3C [MENT Ac]
- release rate ([1]; 4.4 cm implant, drug load 112±4 mg MENT Ac, based on an in vivo study): approximately 500 micrograms per implant per day
- bioavailability from implants ([1]; certain subcutaneous implants, MENT Ac compared with MENT): superior in terms of bioavailability
- hydrolysis to MENT ([1]; in vivo): readily hydrolyzed to MENT
- mean serum LH concentration ([2]; 2 or 4 implants (500 micrograms each), day 8): nearly undetectable levels of LH
- mean serum LH concentration ([2]; first post implant visit on day 8, one, two or four implants): dropped significantly
- levels of LH, FSH and testosterone ([2]; four 500 microgram per day implants simultaneously): very comparable to those obtained at the 1000 microgram per day level
- mean serum FSH concentration ([2]; one, two or four implants): significant impact on the serum FSH concentration
- mean serum T concentration (testosterone) ([2]; single implant): much reduced levels of testosterone
- daily blood levels of FSH (average) [2, 4]: above 2 IU/L
- daily blood levels of LH (average) [2, 4]: below 2 IU/L
- daily blood levels of testosterone [2, 4]: about 5.0 nmol/liter
- daily blood levels of FSH (average) [2, 5]: less than 0.5 IU/L
- daily blood levels of LH (average) [2, 5]: less than 0.5 IU/L
- daily blood levels of testosterone [2, 5]: about 1.0 nmol/liter
- mean serum T concentration (testosterone) ([2]; two or four implants): very low testosterone levels

Compound: C[C@@H]1CC2=CC(=O)CC[C@@H]2[C@H]2CC[C@]3(C)[C@@H](O)CC[C@H]3[C@@H]21 [MENT, 7α-methyl-19-nortestosterone]
- stimulation of the prostate (prostate): stimulates the prostate to a much lower degree
- result in terms of testosterone (contraceptive adequacy) ([3]; 1 mg MENT by i.m. injection once a day): inadequate for contraceptive purposes
- contraceptive adequacy from serum testosterone (FIGS. 9 and 12) ([3]; 4 mg MENT by once-a-day i.m. injection): sufficient to ensure that some level of effective contraception is obtained
- serum gonadotropins and testosterone levels ([3]; 1, 2 or 4 mg MENT daily i.m. for six days, both studies): gradual decrease
- time at which serum gonadotropins and testosterone reached their lowest levels ([3]; 1, 2 or 4 mg MENT daily i.m., end of treatment): six
- study day by which values returned to the normal range ([3]; after 1, 2 or 4 mg MENT daily i.m. for six days): 15 to 30 days
- dose required to obtain serum levels of FSH below two IU per liter by day 6 ([3]; daily i.m. injection, first study, FIG. 8): at least 4 mg
- levels of the metabolite DHT ([2]; MENT Ac implants, FIG. 5): actually decreased

Compound: C[C@]12CC[C@H]3[C@@H](CCC4=CC(=O)CC[C@@]43C)[C@@H]1CC[C@@H]2O [testosterone, reference compound]
- stimulation of the prostate (prostate): can overstimulate the prostate
